Reference: US3983239A, “Hexahydro-γ-carboline derivatives and their salts” (priority 1974, dated 1976)
Read-outs that look alike come from different tables or passages of the source.

Experiments:
[1] = test system: methamphetamine-induced stereotypy; test: Potentiation of methamphetamine-induced stereotypy; format: in vivo, male Wistar HLA rats; parameters: key: ---: Marked antagonism; --: Moderate antagonism; -: Slight antagonism; 0: No interaction; +: Slight potentiation; ++: Moderate potentiation; +++: Marked potentiation; conditions: methamphetamine 2 mg/kg i.p.
Procedure: 1. Potentiation of methamphetamine-induced stereotypy
This test was carried out by a modified method of R. T. Naylor (Life Sci., Vol. 10, page 909, 1971).
To male Wistar HLA rats, weighing 200 to 250 g (each group: 6 rats), were intraperitoneally administered the compounds to be tested. After 20 minutes, methamphetamine (2 mg/kg) was intraperitoneally administered to the test animals, and then the appeared stereotypy was observed. The effects of the test compounds were evaluated by the intensity of the stereotypy and the termination thereof.

muscle relaxant activity = test: Muscle relaxant activity, rats; format: in vivo; conditions: Rattus norvegicus, read-out: ED50 value, muscle relaxant activity
[2] = test system: conditioned avoidance response; test: Inhibiting activity of conditioned avoidance response, rats (Shuttle box method); format: in vivo; conditions: Rattus norvegicus, po, read-out: ED50 value, inhibiting activity of conditioned avoidance response
catalepsy = test: Cataleptogenic activity, rats; format: in vivo; conditions: Rattus norvegicus, po, read-out: ED50 value, cataleptogenic activity
Source text: The compounds of the present invention show the same central nervous system depressing pattern as the existing neuroleptics, such as an inhibiting activity of locomotion, an inhibiting activity of conditioned avoidance response, a cataleptogenic activity, a muscle relaxant activity, an inhibiting activity of self-stimulation, and an anti-methamphetamine activity in terms of locomotor activity.

self-stimulation = test: Inhibiting activity of self-stimulation, rats; format: in vivo; conditions: Rattus norvegicus, po, read-out: ED50 value, inhibiting activity of self-stimulation
Source text: 8) J. Olds et al; J. Comp. Physiol. Psychol., Vol. 47, page

[3] = test system: conditioned avoidance response; test: Inhibiting activity of conditioned avoidance response, mice; format: in vivo; conditions: Mus musculus, po, read-out: ED50 value, inhibiting activity of conditioned avoidance response
locomotion [4] = test: Inhibiting activity of locomotion, mice (Animex method); format: in vivo; conditions: Mus musculus, po, read-out: ED50 value, inhibiting activity of locomotion
Acute toxicity, mice = conditions: mouse, in vivo; for LD50 at 96 h: observed 4 days
Source text: (§1) Male and female STD-dd Y mice, weighing 20 to 22 g (each group: 10 mice) and male Wistar HLA rats, weighing 250 to 300 g (each group: 10 to 20 rats) were used.

locomotion [5] = test: Inhibiting activity of locomotion, rats (Open-field method); format: in vivo; conditions: Rattus norvegicus, read-out: ED50 value, inhibiting activity of locomotion
Source text: 3) Open-field method [C.S. Hall; J. Comp. Physiol. Psychol.

Acute toxicity, rats = conditions: rat, in vivo, male, observed 4 days
Source text: as §1

Q: Which “Stereotypy Intensity” value ([1]; 2.0 mg/kg i.p.) does the source give for `CCc1ccc2c(c1)C1CN(CCCC(=O)c3ccc(F)cc3)CCC1N2.Cl.Cl` (stereo not shown) [B, 8-Ethyl-2-[γ-(p-fluorobenzoyl)propyl]-2,3,4,4a,5,9b-hexahydro-1H-pyrido[4,3-b]indole dihydrochloride] here?
A: +

Q: What about the “Stereotypy Termination” value ([1]; 2.0 mg/kg i.p.) of the same molecule?
A: +

Q: What about the “Stereotypy Intensity” value ([1]; 5.0 mg/kg i.p.) of the same molecule?
A: +++

Q: What about the “Stereotypy Termination” value ([1]; 5.0 mg/kg i.p.) of the same molecule?
A: +++

Q: And the “Stereotypy Intensity” value ([1]; 10.0 mg/kg i.p.)?
A: +++

Q: What about the “Stereotypy Termination” value ([1]; 10.0 mg/kg i.p.) of the same molecule?
A: +++

Q: For `Cc1ccc2c(c1)C1CN(CCCC(=O)c3ccc(F)cc3)CCC1N2C.Cl.Cl` (stereo not shown) [C, 5,8-Dimethyl-2-[γ-(p-fluorobenzoyl)propyl]-2,3,4,4a,5,9b-hexahydro-1H-pyrido[4,3-b]indole dihydrochloride], which “Stereotypy Intensity” value ([1]; 1.0 mg/kg i.p.) is on record?
A: 0

Q: And the “Stereotypy Termination” value ([1]; 1.0 mg/kg i.p.)?
A: 0

Q: And the “Stereotypy Intensity” value ([1]; 2.0 mg/kg i.p.)?
A: 0

Q: And the “Stereotypy Termination” value ([1]; 2.0 mg/kg i.p.)?
A: 0

Q: And the “Stereotypy Intensity” value ([1]; 5.0 mg/kg i.p.)?
A: ++

Q: And the “Stereotypy Termination” value ([1]; 5.0 mg/kg i.p.)?
A: ++

Q: And the “Stereotypy Intensity” value ([1]; 10.0 mg/kg i.p.)?
A: ++

Q: What about the “Stereotypy Termination” value ([1]; 10.0 mg/kg i.p.) of the same molecule?
A: +++

Q: With `CN(C)CCCN1c2ccccc2Sc2ccc(Cl)cc21` [Chlorpromazine] as the molecule, how does the ED50 (muscle relaxant activity; ip) read?
A: 2.07 mg/kg

Q: What about the ED50 (muscle relaxant activity; po) of the same molecule?
A: 4.38 mg/kg

Q: And the ED50 [2]?
A: 7.04 mg/kg

Q: And the ED50 (catalepsy)?
A: 16.1 mg/kg

Q: What about the ED50 (self-stimulation) of the same molecule?
A: 7.04 mg/kg

Q: What about the “Stereotypy Intensity” value ([1]; 2.0 mg/kg i.p.) of the same molecule?
A: 0

Q: What about the “Stereotypy Termination” value ([1]; 2.0 mg/kg i.p.) of the same molecule?
A: 0

Q: And the “Stereotypy Intensity” value ([1]; 5.0 mg/kg i.p.)?
A: --

Q: And the “Stereotypy Termination” value ([1]; 5.0 mg/kg i.p.)?
A: +

Q: And the “Stereotypy Intensity” value ([1]; 10.0 mg/kg i.p.)?
A: ---

Q: And the “Stereotypy Termination” value ([1]; 10.0 mg/kg i.p.)?
A: ---

Q: What about the ED50 [3] of the same molecule?
A: 5.65 mg/kg

Q: And the ED50 (locomotion [4])?
A: 6.34 mg/kg

Q: And the LD50 at 168 h (Acute toxicity, mice; po, male, observed 7 days)?
A: 476 mg/kg

Q: And the ED50 (locomotion [5]; ip)?
A: 2.41 mg/kg

Q: And the ED50 (locomotion [5]; po)?
A: 9.88 mg/kg

Q: With `CN1CCN(C2=Nc3cc(Cl)ccc3Nc3ccccc32)CC1` [Clozapine, 8-chloro-11-(4-methyl-1-piperazinyl)-5H-dibenzo[b,e][1,4]-diazepine] as the molecule, how does the ED50 (muscle relaxant activity; ip, rats, i.p.) read?
A: 5.41 mg/kg

Q: And the ED50 (muscle relaxant activity; po, rats, p.o.)?
A: 28.1 mg/kg

Q: And the ED50 ([2]; rats, p.o.)?
A: 34.7 mg/kg

Q: And the ED50 (catalepsy; rats, p.o.)?
A: > 100 mg/kg

Q: And the ED50 (self-stimulation; rats, p.o.)?
A: 61.8 mg/kg

Q: What about the ED50 ([3]; mice, p.o.) of the same molecule?
A: 9.75 mg/kg

Q: What about the LD50 at 96 h (Acute toxicity, rats; iv) of the same molecule?
A: 42 mg/kg

Q: And the LD50 at 96 h (Acute toxicity, rats; po)?
A: 251 mg/kg

Q: What about the LD50 at 96 h (Acute toxicity, rats; sc) of the same molecule?
A: 272 mg/kg

Q: What about the ED50 (locomotion [4]; mice, p.o.) of the same molecule?
A: 7.5 mg/kg

Q: What about the LD50 at 96 h (Acute toxicity, mice; iv, male) of the same molecule?
A: 37 mg/kg

Q: What about the LD50 at 96 h (Acute toxicity, mice; po, female) of the same molecule?
A: 212 mg/kg

Q: What about the LD50 at 96 h (Acute toxicity, mice; po, male) of the same molecule?
A: 202 mg/kg

Q: And the LD50 at 96 h (Acute toxicity, mice; sc, male)?
A: 194 mg/kg

Q: And the ED50 (locomotion [5]; ip, rats, i.p.)?
A: 5.54 mg/kg

Q: And the ED50 (locomotion [5]; po, rats, p.o.)?
A: 27.4 mg/kg

Q: With `CCN1c2ccc(C)cc2C2CN(CCCC(=O)c3ccc(F)cc3)CCC21.Cl.Cl` (stereo not shown) [D, 5-Ethyl-8-methyl-2-[γ-(p-fluorobenzoyl)propyl]-2,3,4,4a,5,9b-hexahydro-1H-pyrido[4,3-b]indole dihydrochloride] as the molecule, how does the “Stereotypy Intensity” value ([1]; 1.0 mg/kg i.p.) read?
A: 0

Q: What about the “Stereotypy Termination” value ([1]; 1.0 mg/kg i.p.) of the same molecule?
A: 0

Q: And the “Stereotypy Intensity” value ([1]; 2.0 mg/kg i.p.)?
A: 0

Q: What about the “Stereotypy Termination” value ([1]; 2.0 mg/kg i.p.) of the same molecule?
A: 0

Q: What about the “Stereotypy Intensity” value ([1]; 5.0 mg/kg i.p.) of the same molecule?
A: +

Q: And the “Stereotypy Termination” value ([1]; 5.0 mg/kg i.p.)?
A: ++

Q: And the “Stereotypy Intensity” value ([1]; 10.0 mg/kg i.p.)?
A: +++

Q: And the “Stereotypy Termination” value ([1]; 10.0 mg/kg i.p.)?
A: +++

Q: With `O=C(CCCN1CCC(O)(c2ccc(Cl)cc2)CC1)c1ccc(F)cc1` [Haloperidol] as the molecule, how does the “Stereotypy Intensity” value ([1]; 0.1 mg/kg i.p.) read?
A: 0

Q: What about the “Stereotypy Termination” value ([1]; 0.1 mg/kg i.p.) of the same molecule?
A: -

Q: What about the “Stereotypy Intensity” value ([1]; 0.2 mg/kg i.p.) of the same molecule?
A: -

Q: What about the “Stereotypy Termination” value ([1]; 0.2 mg/kg i.p.) of the same molecule?
A: --

Q: And the “Stereotypy Intensity” value ([1]; 0.5 mg/kg i.p.)?
A: -- -

Q: And the “Stereotypy Termination” value ([1]; 0.5 mg/kg i.p.)?
A: --

Q: And the “Stereotypy Intensity” value ([1]; 1.0 mg/kg i.p.)?
A: ---

Q: And the “Stereotypy Termination” value ([1]; 1.0 mg/kg i.p.)?
A: --

Q: Which “Stereotypy Intensity” value ([1]; 1.0 mg/kg i.p.) does the source give for `Cc1ccc2[nH]c3c(c2c1)CN(CCCC(=O)c1ccc(F)cc1)CC3.Cl` [compound 1, 8-Methyl-2-[γ-(p-fluorobenzoyl)propyl]-2,3,4,5-tetrahydro-1H-pyrido[4,3-b]indole hydrochloride] here?
A: 0

Q: What about the “Stereotypy Termination” value ([1]; 1.0 mg/kg i.p.) of the same molecule?
A: 0

Q: What about the “Stereotypy Intensity” value ([1]; 2.0 mg/kg i.p.) of the same molecule?
A: 0

Q: And the “Stereotypy Termination” value ([1]; 2.0 mg/kg i.p.)?
A: 0

Q: And the “Stereotypy Intensity” value ([1]; 5.0 mg/kg i.p.)?
A: 0

Q: And the “Stereotypy Termination” value ([1]; 5.0 mg/kg i.p.)?
A: 0

Q: And the “Stereotypy Intensity” value ([1]; 10.0 mg/kg i.p.)?
A: 0

Q: What about the “Stereotypy Termination” value ([1]; 10.0 mg/kg i.p.) of the same molecule?
A: 0

Q: Which “Stereotypy Intensity” value ([1]; 1.0 mg/kg i.p.) does the source give for `Cl.Cl.O=C(CCCN1CCC2Nc3ccccc3C2C1)c1ccc(F)cc1` (stereo not shown) [compound 2, 2-[γ-(p-Fluorobenzoyl)propyl]-2,3,4,4a,5,9b-hexahydro-1H-pyrido[4,3-b]indole dihydrochloride] here?
A: 0

Q: And the “Stereotypy Termination” value ([1]; 1.0 mg/kg i.p.)?
A: 0

Q: And the “Stereotypy Intensity” value ([1]; 2.0 mg/kg i.p.)?
A: 0

Q: What about the “Stereotypy Termination” value ([1]; 2.0 mg/kg i.p.) of the same molecule?
A: 0

Q: And the “Stereotypy Intensity” value ([1]; 5.0 mg/kg i.p.)?
A: 0

Q: What about the “Stereotypy Termination” value ([1]; 5.0 mg/kg i.p.) of the same molecule?
A: 0

Q: What about the “Stereotypy Intensity” value ([1]; 10.0 mg/kg i.p.) of the same molecule?
A: -

Q: What about the “Stereotypy Termination” value ([1]; 10.0 mg/kg i.p.) of the same molecule?
A: 0

Q: For `Cl.Cl.O=C(CCCN1CCC2Nc3ccc(F)cc3C2C1)c1ccc(F)cc1` (stereo not shown) [compound 3, 8-Fluoro-2-[γ-(p-fluorobenzoyl)propyl]-2,3,4,4a,5,9b-hexahydro-1H-pyrido[4,3-b]indole dihydrochloride], which “Stereotypy Intensity” value ([1]; 1.0 mg/kg i.p.) is on record?
A: 0

Q: What about the “Stereotypy Termination” value ([1]; 1.0 mg/kg i.p.) of the same molecule?
A: 0

Q: What about the “Stereotypy Intensity” value ([1]; 2.0 mg/kg i.p.) of the same molecule?
A: 0

Q: What about the “Stereotypy Termination” value ([1]; 2.0 mg/kg i.p.) of the same molecule?
A: 0

Q: And the “Stereotypy Intensity” value ([1]; 5.0 mg/kg i.p.)?
A: -

Q: And the “Stereotypy Termination” value ([1]; 5.0 mg/kg i.p.)?
A: -

Q: What about the “Stereotypy Intensity” value ([1]; 10.0 mg/kg i.p.) of the same molecule?
A: --

Q: And the “Stereotypy Termination” value ([1]; 10.0 mg/kg i.p.)?
A: --

Q: Which “Stereotypy Intensity” value ([1]; 1.0 mg/kg i.p.) does the source give for `COc1ccc2c(c1)C1CN(CCCC(=O)c3ccc(F)cc3)CCC1N2.Cl.Cl` (stereo not shown) [compound 4, 8-Methoxy-2-[γ-(p-fluorobenzoyl)propyl]-2,3,4,4a,5,9b-hexahydro-1H-pyrido[4,3-b]indole dihydrochloride] here?
A: 0

Q: And the “Stereotypy Termination” value ([1]; 1.0 mg/kg i.p.)?
A: 0

Q: And the “Stereotypy Intensity” value ([1]; 2.0 mg/kg i.p.)?
A: 0

Q: What about the “Stereotypy Termination” value ([1]; 2.0 mg/kg i.p.) of the same molecule?
A: 0

Q: And the “Stereotypy Intensity” value ([1]; 5.0 mg/kg i.p.)?
A: 0

Q: And the “Stereotypy Termination” value ([1]; 5.0 mg/kg i.p.)?
A: 0

Q: And the “Stereotypy Intensity” value ([1]; 10.0 mg/kg i.p.)?
A: --

Q: What about the “Stereotypy Termination” value ([1]; 10.0 mg/kg i.p.) of the same molecule?
A: 0
